# ChEMBL document CHEMBL3045575, “Synthesis of tetracyclic aza-/oxa-naphthalen-8-ones and their antimicrobial activity” (2013)
# Key:
# Assay type in all cases: functional
# Micrococcus luteus = experiment: Antibacterial activity against Micrococcus luteus at 100 ppm after 24 hr by cup-plate method; conditions: read-out: IZ
# Escherichia coli = experiment: Antibacterial activity against Escherichia coli at 100 ppm after 24 hr by cup-plate method; conditions: read-out: IZ
# Staphylococcus aureus = experiment: Antibacterial activity against Staphylococcus aureus at 100 ppm after 24 hr by cup-plate method; conditions: read-out: IZ
# Fusarium graminearum = experiment: Antifungal activity against Fusarium graminearum at 100 ug after 7 days by poison-food method; conditions: 168 h, read-out: IZ
Structure (SMILES),zone of inhibition at 100 ppm (Micrococcus luteus) [mm],zone of inhibition at 100 ppm (Escherichia coli) [mm],zone of inhibition at 100 ppm (Staphylococcus aureus) [mm],zone of inhibition at 100 µg/disc (Fusarium graminearum) [mm]
O=C1CC2c3ccc4ccccc4c3OC2O1 (stereo not drawn),10,11,10,45
O=C1CC2c3ccc4ccccc4c3OC2N1c1cccc([N+](=O)[O-])c1 (stereo not drawn),9,9,21,25
O=C1CC2c3ccc4ccccc4c3OC2N1c1ccc([N+](=O)[O-])cc1 (stereo not drawn),10,8,8,25
O=C1CC2c3ccc4ccccc4c3OC2N1c1ccccc1 (stereo not drawn),11,11,10,45
Cc1ccc(N2C(=O)CC3c4ccc5ccccc5c4OC32)cc1 (stereo not drawn),18,10,11,50
CC1(C)S[C@@H]2[C@H](NC(=O)[C@H](N)c3ccccc3)C(=O)N2[C@H]1C(=O)O [AMPICILLIN],5,4,5,
